Where two headings read alike, the source gives them in different places.
Columns and labels:
[1] = system: Aspergillus fumigatus ATCC 90906; experiment: Antifungal susceptibility testing, Aspergillus fumigatus; format: cell-based
Protocol: (§1) Using standard susceptibility tests, the compounds of the invention were determined to be active against MRSA, C. neoformans and several other bacteria, fungi and protozoa. More specifically, the antibacterial and antifungal testing was carried out in the following manner. Cryptococcus neoformans ATCC 90113 and MRSA were obtained from the American Type Culture Collection (Manassas. Va.). Several others including Candida albicans ATTC 90028, Aspergillus fumigatus ATCC 90906 and Mycobacterium intracellulare (M. intracellulare) ATCC 23086 were also procured. Susceptibility testing was performed using a modified version of the National Committee for Clinical Laboratory Standards method. M. intracellulare was tested using a modified method of Franzblau, et al., J. Clin. Microbiol., 1998, 36, 362-366. DMSO solutions of samples were serially diluted in saline, and transferred in duplicate to 96 well microplates. Microbial suspensions were diluted in the broth to afford desired colony forming units/mL according to the 0.5 McFarland Standard [C. Albicans: either Saboraud Dextrose broth (SDB) or RPMI 1640, C. neoformans: SDB, A fumigatus: either YM broth (for MICS) or RPMI-1640+5% Alamar Blue.] After adding microbial cultures to the sampled afforded a final volume of 200 μL and final test concentration starting with 20 μg/mL, plates were read prior to and after final incubation using either fluorescence at 544ex/590em (M intracellulare, A. fumigatus) using the Polarstar galaxy reader (Biotek Instruments, Vermont). Growth (saline only), solvent and blank (media only) controls were included on each test plate. Drug controls [Ciprofloxacin (ICN Biomedicals, Ohio) for bacteria and Amphotericin B (ICN Biomedicals, Ohio) for fungi] were included in each assay. Percent growth was calculated and plotted versus test concentration to afford IC50 (sample concentration that affords 50% inhibition or growth of the organism). The minimum inhibitory concentration (MIC) was determined by visually inspecting the plate, and is defined as the lowest test concentration that allows no detectable growth (for Almar Blue assays, no color change from blue to pink).

[2] = system: Cryptococcus neoformans ATCC 90113; experiment: Antifungal susceptibility testing, Cryptococcus neoformans; format: cell-based
Protocol: as §1

MRSA = experiment: Antibacterial susceptibility testing, MRSA; format: cell-based, methicillin resistant Staphylococcus aureus; conditions: for MRSA IC50 / MRSA MFC / MRSA MIC: Table 2; for MRS IC50 / MRS MFC / MRS MIC: Table 1
Protocol: as §1

[3] = system: Candida albicans ATTC 90028; experiment: Antifungal susceptibility testing, Candida albicans; format: cell-based
Protocol: as §1

Row | SMILES | A fu IC50 ([1]; Table 1, Aspergillus fumigatus) | A fu MFC ([1]; Table 1, Aspergillus fumigatus) | A fu MIC ([1]; Table 1, Aspergillus fumigatus) | Cn IC50 ([2]; Table 1) | Cn MFC ([2]; Table 1) | Cn MIC ([2]; Table 1) | MRS IC50 (MRSA) | MRS MFC (MRSA) | MRS MIC (MRSA) | Ca IC50 ([3]; Table 1) | Ca MFC ([3]; Table 1) | Ca MIC ([3]; Table 1) | other results
1 | C[n+]1cc(Nc2ccccc2Cl)cc2ccccc21.[I-] [JRE-2-42-1] | – | – | – | – | – | – | – | – | – | – | – | – | A fu IC50 ([1]; Table 2, Aspergillus fumigatus): — ((-) = >20 μg/mL); Cn IC50 ([2]; Table 2): — ((-) = >20 μg/mL); Cn MFC ([2]; Table 2): — ((-) = >20 μg/mL); Cn MIC ([2]; Table 2): — ((-) = >20 μg/mL); MRSA IC50 (MRSA): — ((-) = >20 μg/mL); MRSA MFC (MRSA): — ((-) = >20 μg/mL); MRSA MIC (MRSA): — ((-) = >20 μg/mL); Ca IC50 ([3]; Table 2): — ((-) = >20 μg/mL); Ca MFC ([3]; Table 2): — ((-) = >20 μg/mL); Ca MIC ([3]; Table 2): — ((-) = >20 μg/mL)
2 | C[n+]1cc(Nc2cccc(Cl)c2)cc2ccccc21.[I-] [JRE-2-81-1] | – | – | – | – | – | – | – | – | – | – | – | – | A fu IC50 ([1]; Table 2, Aspergillus fumigatus): — ((-) = >20 μg/mL); Cn IC50 ([2]; Table 2): — ((-) = >20 μg/mL); Cn MFC ([2]; Table 2): — ((-) = >20 μg/mL); Cn MIC ([2]; Table 2): — ((-) = >20 μg/mL); MRSA IC50 (MRSA): — ((-) = >20 μg/mL); MRSA MFC (MRSA): — ((-) = >20 μg/mL); MRSA MIC (MRSA): — ((-) = >20 μg/mL); Ca IC50 ([3]; Table 2): — ((-) = >20 μg/mL); Ca MFC ([3]; Table 2): — ((-) = >20 μg/mL); Ca MIC ([3]; Table 2): — ((-) = >20 μg/mL)
3 | c1ccc(Nc2cc3ccccc3[n+](CCCCCC3CCCCC3)c2)cc1 [JRE-3-19-1] | – | – | – | – | – | – | – | – | – | – | – | – | A fu MFC [1]: 25 µg/mL; A fu MIC [1]: 1.6 µg/mL; IC50 ([1]; ATCC90906, Table 2, Aspergillus fumigatus, read-out: A fu IC50): 1 µg/mL; IC50 ([2]; ATCC90113, Table 2, read-out: Cn IC50): 0.55 µg/mL; MFC ([2]; ATCC90113, Table 2, read-out: Cn MFC): 6.3 µg/mL; MIC ([2]; ATCC90113, Table 2, read-out: Cn MIC): 0.78 µg/mL; IC50 (MRSA; Staphylococcus aureus, Table 2, read-out: MRSA IC50): 0.85 µg/mL; MFC (MRSA; Staphylococcus aureus, Table 2, read-out: MRSA MFC): 6.3 µg/mL; MIC (MRSA; Staphylococcus aureus, Table 2, read-out: MRSA MIC): 1.6 µg/mL; IC50 ([3]; ATTC90028, Table 2, read-out: Ca IC50): 1 µg/mL; MFC ([3]; ATTC90028, Table 2, read-out: Ca MFC): 13 µg/mL; MIC ([3]; ATTC90028, Table 2, read-out: Ca MIC): 3.1 µg/mL
4 | COc1ccc(Nc2cc3ccccc3[n+](CCCCCC3CCCCC3)c2)cc1.[I-] [JRE-3-45-1] | – | – | – | – | – | – | – | – | – | – | – | – | A fu IC50 ([1]; Table 2, Aspergillus fumigatus): — ((-) = >20 μg/mL); Cn IC50 ([2]; Table 2): — ((-) = >20 μg/mL); Cn MFC ([2]; Table 2): — ((-) = >20 μg/mL); Cn MIC ([2]; Table 2): — ((-) = >20 μg/mL); MRSA IC50 (MRSA): — ((-) = >20 μg/mL); MRSA MFC (MRSA): — ((-) = >20 μg/mL); MRSA MIC (MRSA): — ((-) = >20 μg/mL); Ca IC50 ([3]; Table 2): — ((-) = >20 μg/mL); Ca MFC ([3]; Table 2): — ((-) = >20 μg/mL); Ca MIC ([3]; Table 2): — ((-) = >20 μg/mL)
5 | C[n+]1cc(Sc2ccccc2)cc2ccccc21.[I-] [XYZ-III-53] | — ((-) = >20 μg/mL) | — ((-) = >20 μg/mL) | — ((-) = >20 μg/mL) | — ((-) = >20 μg/mL) | — ((-) = >20 μg/mL) | — ((-) = >20 μg/mL) | — ((-) = >20 μg/mL) | — ((-) = >20 μg/mL) | — ((-) = >20 μg/mL) | — ((-) = >20 μg/mL) | — ((-) = >20 μg/mL) | — ((-) = >20 μg/mL) | –
6 | [I-].c1ccc(CCCCC[n+]2cc(Sc3ccccc3)cc3ccccc32)cc1 [XYZ-III-54] | 1.3 µg/mL | — ((-) = >20 μg/mL) | – | – | 10 µg/mL | 5.0 µg/mL | 1.0 µg/mL | 10 µg/mL | 2.5 µg/mL | 5.5 µg/mL | — ((-) = >20 μg/mL) | 10 µg/mL | –
7 | C[n+]1cc(Sc2ccc(F)cc2)cc2ccccc21.[I-] [XYZ-III-62] | — ((-) = >20 μg/mL) | — ((-) = >20 μg/mL) | — ((-) = >20 μg/mL) | — ((-) = >20 μg/mL) | — ((-) = >20 μg/mL) | — ((-) = >20 μg/mL) | — ((-) = >20 μg/mL) | — ((-) = >20 μg/mL) | — ((-) = >20 μg/mL) | — ((-) = >20 μg/mL) | — ((-) = >20 μg/mL) | — ((-) = >20 μg/mL) | –
8 | Fc1ccc(Sc2cc3ccccc3[n+](CCCCCc3ccccc3)c2)cc1.[I-] [XYZ-III-63] | – | — ((-) = >20 μg/mL) | – | 7.0 µg/mL | — ((-) = >20 μg/mL) | — ((-) = >20 μg/mL) | 5.5 µg/mL | — ((-) = >20 μg/mL) | 10 µg/mL | 20 µg/mL | — ((-) = >20 μg/mL) | — ((-) = >20 μg/mL) | –
9 | C[n+]1cc(Sc2ccc(C(F)(F)F)cc2)cc2ccccc21.[I-] [XYZ-III-65] | — ((-) = >20 μg/mL) | — ((-) = >20 μg/mL) | — ((-) = >20 μg/mL) | — ((-) = >20 μg/mL) | — ((-) = >20 μg/mL) | — ((-) = >20 μg/mL) | — ((-) = >20 μg/mL) | — ((-) = >20 μg/mL) | — ((-) = >20 μg/mL) | — ((-) = >20 μg/mL) | — ((-) = >20 μg/mL) | — ((-) = >20 μg/mL) | –
10 | COc1ccc(Sc2cc3ccccc3[n+](C)c2)cc1.[I-] [XYZ-III-71] | — ((-) = >20 μg/mL) | — ((-) = >20 μg/mL) | — ((-) = >20 μg/mL) | — ((-) = >20 μg/mL) | — ((-) = >20 μg/mL) | — ((-) = >20 μg/mL) | — ((-) = >20 μg/mL) | — ((-) = >20 μg/mL) | — ((-) = >20 μg/mL) | — ((-) = >20 μg/mL) | — ((-) = >20 μg/mL) | — ((-) = >20 μg/mL) | –
11 | COc1ccc(Sc2cc3ccccc3[n+](CCCCCc3ccccc3)c2)cc1.[I-] [XYZ-III-72] | 3.5 µg/mL | — ((-) = >20 μg/mL) | 10 µg/mL | 9.5 µg/mL | — ((-) = >20 μg/mL) | 20 µg/mL | 2.0 µg/mL | 10 µg/mL | 5.0 µg/mL | — ((-) = >20 μg/mL) | — ((-) = >20 μg/mL) | — ((-) = >20 μg/mL) | –
